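Five compound concentrations were applied to cells in 96-well plates for 48 hours; endpoints were derived by simple linear interpolation of the resulting dose-response curve. Here, GI50 denotes the concentration required for 50% inhibition of growth. TGI marks complete inhibition of growth.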

Some test systems named below: T-47D breast; MDA-MB-231 breast; LOX IMVI melanoma; HCC-2998 colon; BT-549 breast; MCF7 breast; NCI-H23 lung; SK-OV-3 ovarian; K-562 leukemia; EKVX NSCLC.
Assay in all cases: growth of human tumour cells (NCI), 48 h

As to `CC(=O)N1N=C(c2ccc(Nc3ccnc4cc(Cl)ccc34)cc2)CC1c1ccc(Cl)cc1` (stereo not given), the GI50 with T-47D breast was 1.57 µM; in the experiment on MDA-MB-231 breast it was over 100 µM; in the experiment on LOX IMVI melanoma, 3.15 µM; in the experiment on HCC-2998 colon, over 100 µM; in the experiment on BT-549 breast it was 5.4 µM; in the experiment on MCF7 breast, 4.04 µM. Also, the GI50 in the experiment with NCI-H23 lung is over 100 µM. For the same compound, the TGI with T-47D breast, with MDA-MB-231 breast, with LOX IMVI melanoma, in the experiment on HCC-2998 colon, with BT-549 breast and in the experiment with MCF7 breast was over 100 µM throughout. In the experiment with NCI-H23 lung, this compound yielded a TGI of over 100 µM.
As for `S=C(Nc1ccc(N=Nc2ccccc2)cc1)SCc1ccccc1`, the TGI is over 100 µM in the experiment on T-47D breast; 28.9 µM in the experiment with MDA-MB-231 breast; 98 µM in the experiment with SK-OV-3 ovarian; 38.5 µM in the experiment with LOX IMVI melanoma; 40.3 µM with BT-549 breast; 64.6 µM with MCF7 breast. Also, the TGI was 39.9 µM with K-562 leukemia, 48.6 µM in the experiment with EKVX NSCLC and 30.7 µM with NCI-H23 lung.
As to `COc1ccc2c(c1)CC[C@@H]1[C@@H]2CC[C@]2(C)[C@@H](NC(=O)/C=C/c3ccc(O)c(O)c3)CC[C@@H]12`, the GI50 is 17.3 µM in the experiment with T-47D breast; 2.6 µM with MDA-MB-231 breast; 11.5 µM with SK-OV-3 ovarian; 3.15 µM in the experiment with LOX IMVI melanoma; 2.05 µM in the experiment on HCC-2998 colon; 5.56 µM in the experiment on BT-549 breast. In addition, the GI50 was 5.24 µM with MCF7 breast, 9.98 µM with EKVX NSCLC and 3.51 µM with NCI-H23 lung. In addition, the TGI with T-47D breast is 43 µM; in the experiment with MDA-MB-231 breast it was 15.2 µM; in the experiment with SK-OV-3 ovarian it was 27.1 µM; in the experiment with LOX IMVI melanoma it was 13.7 µM; in the experiment on HCC-2998 colon it was 4.19 µM; with BT-549 breast it was 20.3 µM. Besides, the values for the TGI in the experiment on MCF7 breast, with EKVX NSCLC and in the experiment on NCI-H23 lung were over 100 µM, 24.5 µM and 12.6 µM, respectively.
Take `CN(COC(=O)c1ccccc1)c1nc(N(C)COC(=O)c2ccccc2)nc(N(C)COC(=O)c2ccccc2)n1`: the TGI with T-47D breast was over 100 µM; with MDA-MB-231 breast, 53.4 µM; in the experiment on SK-OV-3 ovarian, over 100 µM; in the experiment with LOX IMVI melanoma, over 100 µM; with HCC-2998 colon, over 100 µM; in the experiment with MCF7 breast it was over 100 µM. Further, the TGI in the experiment on K-562 leukemia, in the experiment with EKVX NSCLC and with NCI-H23 lung was over 100 µM throughout.
Consider `COc1cccc(-c2ccc3c(c2)C2CCN(Cc4ccccc4)C3C2)c1` (stereo not given), for which the GI50 in the experiment on T-47D breast was 5.19 µM; in the experiment on MDA-MB-231 breast it was 5.61 µM; with SK-OV-3 ovarian it was 14.8 µM; in the experiment on LOX IMVI melanoma it was 10.2 µM; in the experiment on HCC-2998 colon, 13.6 µM; with BT-549 breast, 6.12 µM. Moreover, the GI50 in the experiment on MCF7 breast was 4.34 µM. In addition, the TGI with T-47D breast came out at 38.5 µM; in the experiment with MDA-MB-231 breast, 19 µM; in the experiment on SK-OV-3 ovarian, 48.8 µM; in the experiment with LOX IMVI melanoma, 26.8 µM; with HCC-2998 colon it was 33.5 µM; with BT-549 breast, 21.1 µM. This compound also yielded a TGI in the experiment with MCF7 breast of 19.5 µM.
Regarding `COc1cc(OC)c2nccc(NCCCN(C)C)c2c1[N+](=O)[O-]`, the TGI in the experiment on T-47D breast, in the experiment on MDA-MB-231 breast, in the experiment with SK-OV-3 ovarian, in the experiment on LOX IMVI melanoma, with HCC-2998 colon and with BT-549 breast was over 100 µM throughout. In addition, the TGI in the experiment on MCF7 breast, in the experiment on K-562 leukemia and with NCI-H23 lung was over 100 µM throughout.
Take `CCN(Cc1ccc(F)cc1)c1ccc(CO)c(C)c1`: the GI50 is 0.92 µM with T-47D breast; 16.6 µM with MDA-MB-231 breast; 8.91 µM with SK-OV-3 ovarian; 14.9 µM with LOX IMVI melanoma; 14.6 µM in the experiment with HCC-2998 colon; 5.15 µM with BT-549 breast. The figures for the GI50 in the experiment with MCF7 breast, with K-562 leukemia and in the experiment on NCI-H23 lung were 15.1 µM, 9.03 µM and 13.2 µM, respectively. Besides, the TGI with T-47D breast was found to be 6.95 µM; in the experiment with MDA-MB-231 breast it was 35.7 µM; with SK-OV-3 ovarian, 41.5 µM; in the experiment with LOX IMVI melanoma it was 29 µM; in the experiment on HCC-2998 colon, 29.4 µM; with BT-549 breast it was 24.5 µM. The TGI in the experiment on MCF7 breast is over 52.2 µM; in the experiment on K-562 leukemia it was over 72.5 µM; in the experiment on NCI-H23 lung it was 37.1 µM.
As to `CCOc1cc(Br)c(C(C)NC(=O)c2cccc(OC)c2)cc1OCC` (stereo not given), the GI50 is 9.53 µM with T-47D breast; 8.59 µM in the experiment with MDA-MB-231 breast; 23.1 µM in the experiment on SK-OV-3 ovarian; 22.8 µM with LOX IMVI melanoma; 33.7 µM with HCC-2998 colon; 13.2 µM in the experiment on BT-549 breast. Besides, the GI50 in the experiment with MCF7 breast was 5.38 µM; in the experiment with K-562 leukemia, 3.6 µM; in the experiment on NCI-H23 lung it was 29.1 µM. The TGI with T-47D breast was over 100 µM; with MDA-MB-231 breast, over 100 µM; with SK-OV-3 ovarian it was over 100 µM; in the experiment with LOX IMVI melanoma it was over 100 µM; with HCC-2998 colon, over 100 µM; in the experiment on BT-549 breast it was over 84.1 µM. For the same compound, the TGI in the experiment on MCF7 breast, in the experiment with K-562 leukemia and in the experiment on NCI-H23 lung was over 100 µM in each case.
As for `O=[N+]([O-])c1ccc(Oc2nc(Nc3ccc(O[C@H]4CO[C@H]5[C@@H]4OC[C@@H]5O)c(Cl)c3)ncc2F)c(Cl)c1`, the GI50 was 1.13 µM in the experiment on T-47D breast; 1.6 µM in the experiment on MDA-MB-231 breast; 0.667 µM in the experiment with LOX IMVI melanoma; 2.12 µM in the experiment with HCC-2998 colon; 1.29 µM in the experiment with BT-549 breast; 1.66 µM in the experiment with MCF7 breast. The GI50 in the experiment with K-562 leukemia was 1.31 µM; with EKVX NSCLC, 2.22 µM; in the experiment on NCI-H23 lung, 1.3 µM. The TGI in the experiment on T-47D breast is 8.06 µM; in the experiment on MDA-MB-231 breast it was 7.39 µM; in the experiment on LOX IMVI melanoma it was 2.28 µM; in the experiment on HCC-2998 colon, 7.07 µM; in the experiment with BT-549 breast, 3.36 µM; in the experiment with MCF7 breast, 4.16 µM. For the same compound, the TGI was determined as 13.3 µM in the experiment on K-562 leukemia, 9.43 µM with EKVX NSCLC and 3.22 µM in the experiment with NCI-H23 lung.
With `COc1cccc(/C=N/NC(=S)NC2CC3CCC2C3)c1O` (stereo not given), the GI50 was 3.13 µM in the experiment on T-47D breast; 4.88 µM in the experiment on MDA-MB-231 breast; 4.46 µM with SK-OV-3 ovarian; 5.09 µM in the experiment on LOX IMVI melanoma; 80.4 µM in the experiment with HCC-2998 colon; 14.5 µM with BT-549 breast. The figures for the GI50 in the experiment on MCF7 breast, with K-562 leukemia and with NCI-H23 lung were 4.74 µM, 7.62 µM and 15.1 µM, respectively. The TGI in the experiment on T-47D breast is 11.8 µM; in the experiment on MDA-MB-231 breast, 21.9 µM; in the experiment with SK-OV-3 ovarian it was 14.4 µM; in the experiment with LOX IMVI melanoma it was 18 µM; with HCC-2998 colon, over 100 µM; with BT-549 breast, 57.3 µM. In addition, the TGI with MCF7 breast is 27.1 µM; in the experiment on K-562 leukemia, over 100 µM; in the experiment with NCI-H23 lung, 45.4 µM.

The values above are taken from PubChem BioAssay (NCI).
